Source: patent publication US20250206704A1, “ENGINEERED IONOPHORES FOR TRANSPORT OF METAL IONS” (The Brigham and Women's Hospital, Inc., priority 2022, published 2025)
Values after ≈ are worked out from the molar mass of the structure shown. Where two headings read alike, the source gives them in different places.

How the values were obtained:
Format in all cases: cell-based
U2OS cells [1] = test: Zinc imaging assay (DA-ZP1 fluorescence) of ionophore activity in U2OS cells; conditions: for ionophore activity (DA-ZP1 fluorescence): U2OS cells, 10 μM Zn(II) and 5 μM compound
Source text: A number of bispicolyl-based Zn^II-chelators were synthesized with increasing size at the ortho-position of phenolic OH by a one-step reductive amination between bispicolyl-amine and commercially available 3-substituted salicylaldehydes. Applicants examined the ionophore activity of bispicolyl analogs with methyl (Me, 2), isopropyl (iPr, 3), and tert-butyl (tBu, 4) substitutions (FIG. 1A). […] [13] The cells were first treated with ZnCl2 and ionophore candidates followed by DA-ZP1 treatment and fluorescence measurement.
Applicants experimentally determined the ionophore activity of these silyl-based compounds using the aforementioned DAZ-P1 assay in U2OS cells.
Applicants also determined metal-ion interference of the silyl-based ionophores with focused efforts on 8. Applicants designed a competition assay wherein Applicants pre-treated equimolar amounts of various metal ions, Mg^II, Ca^II, Mn^II, Fe^II, and Na^I, with 10 μM of Zn^II for 1 hour before treatment with DA-ZP1.
Finally, Applicants compared the activity of the designed compounds against known ionophores (FIGS. 2 and 11). […] [16]
In a 96-well plate, 20,000 U2OS cells were plated per well and cultured for 24 h in the incubator set to 37° C. with 5% CO2. […] The medium containing the compound was removed, and the cells were washed with 3×100 μL of fresh medium, and finally another 100 μL of 2 μM of DA-ZP1 was added to the corresponding cell culture medium containing HCS NuclearMask Blue Stain. The cells were again kept for 1 h in the incubator. The medium containing compound was removed, and the cells were washed with 1×100 μL of PBS and 2×100 μL of fresh medium, and finally, another 100 μL of fresh, dye-free medium was added. The cells were immediately imaged using a high-content fluorescence microscope (Operetta Phenix) in both the DAPI and FITC channels at 20× magnification. Images were analyzed using the Harmony software, and data were plotted using GraphPad Prism 9.

[2] = tested on: Staphylococcus epidermidis; test: MIC, broth microdilution
Source text: (§1) Next, Applicants evaluated the antibacterial activities of the ionophores. First, Applicants determined their minimum inhibitory concentration (MIC) in the gram-positive bacterium that causes hospital-acquired infections, Staphylococcus epidermidis.
(§2) Applicants reasoned that limiting extracellular zinc with EDTA would abolish ionophore activity by depleting the available metal ions for membrane transport. […] [24]
(§3) Staphylococcus epidermidis ATCC® 12228™, Staphylococcus caprae ATCC® 51549™, Bacillus subtilis ATCC® 6051™, and Bacillus cereus ATCC® 14579™ were grown in cation-adjusted Mueller-Hinton broth (CA-MHB) (catalog no. 90922, Sigma) as per the Clinical and Laboratory Standards Institute guidelines.2 Bacteria were routinely grown at 37° C. under aerobic conditions.
(§4) The MIC assay was performed according to the Clinical and Laboratory Standards Institute protocols.^3 The antibacterial activities of the compounds were measured using the broth microdilution method. Serial dilutions of compounds were prepared in cation-adjusted Müller Hinton Broth. Each dilution (100 μL) was dispensed to each well of a round-bottom plate to obtain final concentrations ranging from 0.07815-40 μM. Bacteria were grown at 37° C. overnight on cation-adjusted Müller Hinton Broth. The bacterial solution was prepared in 0.9% saline and adjusted to obtain an OD600=0.1 using a SpectraMax M5 (Molecular Devices). The resultant suspension was diluted 1:20 with cation-adjusted Müller Hinton Broth. The resulting mixture (10 μL) was added to each well of the plates (approximately 5×10^4 CFU/well), mixed, and incubated at 37° C. for 24 h. The MIC value was determined as the minimum concentration that inhibited the growth of bacteria.

Bacillus cereus = test: MIC, broth microdilution; conditions: Table 4, read-out: Strain MIC B. cereus
Procedure: as §1, §3, §4

Bacillus subtilis = test: MIC, broth microdilution; conditions: Table 4, read-out: Strain MIC B. subtilis
Procedure: as §1, §3, §4

Staphylococcus caprae = test: MIC, broth microdilution; conditions: Table 4, read-out: Strain MIC S. caprae
Procedure: as §1, §3, §4

U2OS cells [3] = test: U2OS cell viability assay (CellTiter-Glo); conditions: Homo sapiens, cell viability, 48 h, 5 μM Zn^II, read-out: U2OS EC50 + 5 μM Zn^II
Procedure: as §2
U2OS cells were seeded in black 384-well plates at a density of 3,000 cells per well in 25 μL of medium per well. After seeding, the cells were left to adhere overnight. The compounds to be tested were added to the designated culture plates in 25 μL of medium in triplicate with a normalized DMSO concentration (0.05%) in all treatments, and the plates were placed at 37° C. in a humidified atmosphere containing 5% CO2. After 48 h, 40 μl of CellTiter-Glo (Promega) was added to each well and incubated for 30 min, after which the plate luminescence was analyzed in a PerkinElmer EnVision Manager 1.13 (PerkinElmer). The average growth of treated cells was calculated by correcting the values for background luminescence and was subsequently normalized to the average of the two lowest treatments of the compound in question. Data were plotted and fitted to a dose-response curve using GraphPad Prism 9.

[4] = tested on: S. epidermidis, S. caprae, B. subtilis, B. cereus; test: Average MIC over the four gram-positive strains
Procedure: as §1, §4

bacteria vs U2OS cells = test: Antibacterial selectivity (average molar MIC in bacteria vs EC50 in U2OS cells)
[5] = Table 4, read-out: Strain MIC S. epidermidis
[6] = read-out: Average MIC (molar, in brackets)
[7] = ratio of average molar MIC and U2OS EC50, Table 4

## CC(C)(C)[Si](C)(C)c1cccc(CN(Cc2ccccn2)Cc2ccccn2)c1O [Compound 8, 2-((bis(pyridin-2-ylmethyl)amino)methyl)-6-(tert-butyldimethylsilyl)phenol]
U2OS cells [1]
  ionophore activity (DA-ZP1 fluorescence): improved ionophore activity
U2OS cells [1]; competition: 10 μM Mg^II, Ca^II, Mn^II, Fe^II or Na^I with 10 μM Zn^II and 10 μM compound
  metal-ion interference with ionophore activity (average fluorescence intensity): did not observe significant drops in average fluorescence intensity for most metal ions
[2]; [5]
  MIC: 4.2 µg/mL (≈ 10 µM)
[2]; read-out: MIC
  MIC: ~4.2 µg/mL (≈ 10 µM)
Bacillus cereus
  MIC: 4.2 µg/mL (≈ 10 µM)
Bacillus subtilis
  MIC: 4.2 µg/mL (≈ 10 µM)
Staphylococcus caprae
  MIC: 1.1 µg/mL (≈ 2.62 µM)
U2OS cells [3]
  CC50: 76.5 µM
[4]; read-out: Average MIC
  MIC: 3.4 µg/mL
[4]; [6]
  MIC: 8.1 µM
Bacteria vs U2OS cells
  antibacterial selectivity: 9.4 times
Bacteria vs U2OS cells; [7]
  antibacterial selectivity: 9.4

## CC(C)[Si](c1cccc(CN(Cc2ccccn2)Cc2ccccn2)c1O)(C(C)C)C(C)C [Compound 9, 2-((bis(pyridin-2-ylmethyl)amino)methyl)-6-(triisopropylsilyl)phenol]
U2OS cells [1]
  ionophore activity (DA-ZP1 fluorescence): improved ionophore activity
[2]
  change of MIC with additional Zn^II in the media: unaltered
[2]; 50 μM EDTA
  change of MIC in presence of EDTA: dramatically increased
[2]; [5]
  MIC: 1.2 µg/mL (≈ 2.6 µM)
[2]; read-out: MIC
  MIC: ~1.2 µg/mL (≈ 2.6 µM)
Bacillus cereus
  MIC: 1.2 µg/mL (≈ 2.6 µM)
Bacillus subtilis
  MIC: 1.2 µg/mL (≈ 2.6 µM)
Staphylococcus caprae
  MIC: 0.3 µg/mL (≈ 0.65 µM)
U2OS cells [3]
  CC50: 14.2 µM
[4]; read-out: Average MIC
  MIC: 0.98 µg/mL
[4]; [6]
  MIC: 2.1 µM
[4]; read-out: average MIC
  MIC: 1 µg/mL
Bacteria vs U2OS cells
  antibacterial selectivity: 6.8 times
Bacteria vs U2OS cells; [7]
  antibacterial selectivity: 6.8
